These are literature values, as cited in patent US20170246115A1, “MEDICINE” (KOWA COMPANY, LTD., priority 2012, published 2017).

For this data set the following is noted: amorphous form formed on drying crystal form A at a water content of 4% or lower.

The structures appear in SMILES notation.

Consider `O=C([O-])C[C@H](O)C[C@H](O)/C=C/c1c(C2CC2)nc2ccccc2c1-c1ccc(F)cc1.O=C([O-])C[C@H](O)C[C@H](O)/C=C/c1c(C2CC2)nc2ccccc2c1-c1ccc(F)cc1.[Ca+2]` [amorphous pitavastatin calcium], for which the storage stability result is reported as “considerably poor storage stability”.
